The structures appear in SMILES notation.

Six compounds from ChEMBL document CHEMBL4610051, “Spirobiflavonoid stereoisomers from the endangered conifer Glyptostrobus pensilis and their protein tyrosine phosphatase 1B inhibitory activity” (Bioorg Med Chem Lett, 2020) can be followed below.

For the assay, the target named is T1, Tyrosine-protein phosphatase non-receptor type 1 (Homo sapiens, UniProt P18031).
T1 sequence (P18031 whole entry): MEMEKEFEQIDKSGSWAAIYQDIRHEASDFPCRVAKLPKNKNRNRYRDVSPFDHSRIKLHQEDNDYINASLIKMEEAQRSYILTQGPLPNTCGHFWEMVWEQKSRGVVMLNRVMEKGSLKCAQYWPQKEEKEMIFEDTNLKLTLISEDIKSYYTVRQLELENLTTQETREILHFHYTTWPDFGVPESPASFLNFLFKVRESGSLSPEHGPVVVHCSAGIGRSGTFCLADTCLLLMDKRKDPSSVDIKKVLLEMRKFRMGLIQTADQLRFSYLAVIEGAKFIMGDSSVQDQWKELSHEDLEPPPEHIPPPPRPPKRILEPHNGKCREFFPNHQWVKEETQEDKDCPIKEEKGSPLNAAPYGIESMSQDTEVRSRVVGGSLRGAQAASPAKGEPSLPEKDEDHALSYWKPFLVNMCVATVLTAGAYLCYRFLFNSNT
The experiment in a line: Inhibition of human PTP1B.
For `O=C1Oc2cc(O)c3c(c2[C@@]12c1c(O)cc(O)cc1O[C@@H]2c1ccc(O)cc1)O[C@H](c1ccc(O)cc1)[C@H](O)C3`, the IC50 – broadly, the concentration that gives 50% inhibition – is 8.1 µM.

`O=C1Oc2cc(O)c3c(c2[C@@]12c1c(O)cc(O)cc1O[C@H]2c1ccc(O)cc1)O[C@H](c1ccc(O)cc1)[C@@H](O)C3`: it took 4.6 µM to reach half-maximal inhibition (IC50).

As for `O=C1Oc2cc(O)c3c(c2[C@]12c1c(O)cc(O)cc1O[C@H]2c1ccc(O)cc1)O[C@H](c1ccc(O)cc1)[C@@H](O)C3`, the IC50 came to 11.2 µM.

Turning to `O=C1Oc2cc(O)c3c(c2[C@]12c1c(O)cc(O)cc1O[C@@H]2c1ccc(O)cc1)O[C@H](c1ccc(O)cc1)[C@@H](O)C3`, the IC50 amounted to 3.3 µM.

With `O=C1Oc2cc(O)c3c(c2[C@@]12c1c(O)cc(O)cc1O[C@@H]2c1ccc(O)cc1)O[C@H](c1ccc(O)cc1)[C@@H](O)C3`, the IC50 was 17.1 µM.

Compound `O=C1Oc2cc(O)c3c(c2[C@]12c1c(O)cc(O)cc1O[C@@H]2c1ccc(O)cc1)O[C@H](c1ccc(O)cc1)[C@H](O)C3` [LARIXINOL] came in with an IC50 of 12.9 µM. The IC50 values of the last two compounds are within 1.5-fold of each other.
